Laboratory results: patent US8492568B2, “Chromane derivatives as TRPV3 modulators” (Glenmark Pharamceuticals S.A., priority 2008, dated 2013)

Target: Human TRPV3 (Homo sapiens (Human), UniProt Q8NET8)
Assay: Screening for TRPV3 antagonist using the 45Calcium uptake assay
Type: cell-based
Conditions: 2-APB (500 μM) induced 45Ca uptake, human TRPV3 expressing CHO cells
Description: The illustrative examples of the present invention are screened for TRPV3 activity according to a modified procedure described in Tóth, A., Kedei, N., Wang, Y. and Blumberg, P. M. Life Sciences (2003), 73, 487-498. The screening of the compounds can be carried out by other methods and procedures known to a person skilled in the art. Such screening methods may be found in (a) Hu, H.-Z. et al. J. Biol. Chem. (2004), 279, 35741-35747; (b) Smith, G. D. et al. Nature (2002), 418, 186-190; (c) Peier, A. M. et al. Science (2002), 296, 2046-2049.
Screening for TRPV3 Antagonist Using the ^45Calcium Uptake Assay:
The inhibition of TRPV3 receptor activation was followed as inhibition of 2-aminoethoxydiphenylborate (2-APB) induced cellular uptake of radioactive calcium. Test compounds were dissolved in dimethyl sulfoxide (DMSO) to prepare 20 mM stock solution and then diluted using plain medium with DMEM/F-12 containing 1.8 mM CaCl2 to get desired concentration. Final concentration of DMSO in the reaction was 0.5% (v/v). Human TRPV3 expressing CHO cells were grown in DMEM/F-12 medium with 10% FBS, 1% penicillin-streptomycin solution, 400 μg/ml of G-418. […] Radioactivity in the lysate was measured in Packardt Top count after addition of liquid scintillant. […] IC50 value was calculated from concentration response curve by nonlinear regression analysis using GraphPad PRISM software.

Human TRPV3, sequence (Q8NET8 whole entry): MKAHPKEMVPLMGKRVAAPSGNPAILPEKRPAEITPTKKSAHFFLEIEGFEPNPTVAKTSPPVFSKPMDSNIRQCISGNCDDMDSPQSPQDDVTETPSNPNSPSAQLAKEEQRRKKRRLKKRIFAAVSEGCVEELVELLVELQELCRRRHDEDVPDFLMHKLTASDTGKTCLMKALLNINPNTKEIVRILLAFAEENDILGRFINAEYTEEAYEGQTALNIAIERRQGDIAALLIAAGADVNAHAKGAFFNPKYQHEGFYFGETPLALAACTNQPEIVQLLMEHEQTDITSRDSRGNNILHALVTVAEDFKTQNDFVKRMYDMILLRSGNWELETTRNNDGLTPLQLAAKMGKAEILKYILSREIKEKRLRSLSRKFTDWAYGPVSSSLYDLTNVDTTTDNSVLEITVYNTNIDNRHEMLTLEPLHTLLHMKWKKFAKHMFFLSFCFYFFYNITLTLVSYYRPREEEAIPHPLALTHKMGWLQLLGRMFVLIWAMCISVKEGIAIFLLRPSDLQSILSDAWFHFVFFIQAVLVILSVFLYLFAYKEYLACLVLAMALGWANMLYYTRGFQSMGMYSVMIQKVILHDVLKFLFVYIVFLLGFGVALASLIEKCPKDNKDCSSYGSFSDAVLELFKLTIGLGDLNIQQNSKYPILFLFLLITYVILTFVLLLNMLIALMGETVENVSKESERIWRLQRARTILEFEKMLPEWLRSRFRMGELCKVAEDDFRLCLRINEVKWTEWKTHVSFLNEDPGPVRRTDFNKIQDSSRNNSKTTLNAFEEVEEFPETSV

COc1cccc(CNC(=O)CC2CC3(CCC3)Oc3ccc(Cl)cc32)c1OC1CCCC1 (stereo not shown) [Example 2, 2-(6-Chloro-3,4-dihydrospiro[chromene-2,1′-cyclobutan]-4-yl)-N-(2-cyclopentyloxy-3-methoxybenzyl)acetamide]
IC50: 725.3 n.M
